{
  "source": "patent US20100305023A1",
  "about": "“Method of Delaying The Onset of Clinically Definite Multiple Sclerosis” (Teva Pharmaceutical Industries, Ltd., priority 2007, published 2010)",
  "key": {"[1]": {"tested_on": "patients presenting a clinically isolated syndrome (CIS)", "experimental": "Subgroup analyses related to the primary efficacy variable were performed with respect to demographics and CIS characteristics at initial attack onset (gender, age, and type of unifocal manifestation and steroid treatment for the initial attack), and MRI findings (disease dissemination/activity) at study baseline.\nNo correction for multiplicity was done for any of the following post-hoc analyses. • 1. Subgroup analysis of the primary endpoint for: gender, age, type of unifocal manifestation and corticosteroid use for the initial attack employed the Cox proportional hazards model, as for the principal analysis. Subgroup analyses of proportion of subjects converted to CDMS according to MRI activity at baseline was analyzed using Logistic Regression, as in the fourth secondary endpoint. • 2. Number of relapses: analysis of number of relapses during the placebocontrolled phase, during the entire study and on a yearly basis was performed using the Poisson regression. • 3. Time to confirmed Expanded Disability Status Scale (EDSS) progression: Progression of disability was defined as worsening of at least 1 point in EDSS sustained over 2 consecutive measurements which are at least 6 months apart. Analysis of time to confirmed EDSS progression was performed employing the Cox proportional hazards model.\nSubgroups were created for demographics and CIS characteristics at onset (gender, age, and type of unifocal presentation and steroid treatment for the initial attack), and MRI findings (disease dissemination/activity) at study baseline."}, "[2]": {"tested_on": "patients presenting a clinically isolated syndrome (CIS)", "remark": "listed apart in the source", "protocol": "A clinical trial was undertaken to assess the effect of treatment with GA compared to placebo on the time to conversion to CDMS, as determined by Poser (the occurrence of the second clinical attack) during the double-blind phase.\nSubjects receive their first dose of study medication at the baseline visit. 20 mg GA formulation is injected once daily by subcutaneous route via pre-filled syringe manufactured by Teva Pharmaceutical Industries Ltd., Israel. Subjects are evaluated at study centers at baseline, at months 1, 3, and every 3 months thereafter.\nThe duration of the double-blind phase is 36 months (3 years) or until subject's conversion to CDMS, whichever comes first. Conversion to CDMS is counted when the subject's symptoms are accompanied by observed objective neurological changes, consistent with: • a) an increase of at least 0.5 in the EDSS score or one grade in the score of two or more of the seven Functional Systems (FS); or • b) two grades in the score of one of FS as compared to the previous evaluation.\nThe subject must not be undergoing any acute metabolic changes such as fever or other medical abnormality. A change in bowel/bladder function or in cognitive function must not be entirely responsible for the changes in EDSS or FS scores."}, "[3]": {"tested_on": "patients presenting a clinically isolated syndrome (CIS)", "remark": "listed apart in the source", "protocol": "A clinical trial was undertaken to assess, within the time frame of the up to 3-years placebo-controlled study period, the effect of GA on clinical and MRI parameters.\nSubjects received their first dose of study medication at the baseline visit. 20 mg GA formulation was injected once daily by subcutaneous route via pre-filled syringe manufactured by Teva Pharmaceutical Industries Ltd., Israel. The duration of the double-blind phase is 36 months (3 years) or until subject's conversion to CDMS, whichever comes first."}, "[4]": {"tested_on": "subjects with clinically isolated syndrome (CIS) suggestive of MS", "settings": "MRS, NAA/Cr over time", "protocol": "Single voxel magnetic resonance spectroscopy (MRS) exams were performed at baseline and once a year subsequently. Scans were quantified locally and sent to the MRS Unit (Montreal) where they were deemed acceptable or in need of repeat (either acquisition or analysis). The MRS endpoint is the change in the ratio of N-acetylaspartate/creatine (NAA/Cr) ratio over time. NAA is seen only in neuronal tissue and is a marker of neuronal integrity; reducing with most types of insults to the brain. Cr is often used as an internal reference because it is relatively stable.\nMRS scans were performed after T2-weighted fast-spin-time echo (FSE/TSE) scans and before gadolinium injection. MRS data was obtained from a region of central white matter using a 90-180-180 (PRESS) volume selective sequence to excite a volume of 100 mm×100 mm×20 mm (range 80-100 mm×80-100 mm×20 mm) centered on the body of the corpus callosum using a long echo time (TR 2000, TE 272). The rotation of the acquisition region was the same as for the main image series. […] The region was centered left-right so that the brain mid-line passes centrally through the region. The region was positioned anterior-posterior so that the anterior corners and posterior corners are equidistant from the skull."}, "[5]": {"tested_on": "patients presenting a clinically isolated syndrome (CIS)", "settings": "early treatment vs delayed start of treatment with GA", "protocol": "A clinical trial was undertaken to assess, within the time frame of 5 years, the neuroprotective effect of early versus delayed treatment with GA as reflected by clinical and MRI parameters measuring the accumulated irreversible brain tissue damage.\nSubjects are evaluated at study centers at baseline, at months 1, 3, and every 3 months thereafter. MRI evaluations of T1 and T2 variables are assessed at screening, baseline, at 3 months, and every 3 months thereafter until conversion to CDMS or up to 3 years. An additional MRI assessment is performed upon conversion to CDMS only if no MRI is performed within the previous month. MRI is then performed at the next scheduled visit and every 6 months thereafter.\nBrain atrophy, as measured by the change in brain volume according to the Structural Image Evaluation of Normalized Atrophy (SIENA) technique is assessed at baseline, every 12 months and at conversion to CDMS.\nThe volume of black holes is assessed at baseline and at every 6 months.\nThe count of new T1-weighted hypointense lesions is assessed every 6 months.\nExploratory endpoints are defined to assess the neuroprotective effect as reflected by clinical and MRI parameters comparing the group originally assigned to GA treatment with that randomized to receive placebo treatment (delayed start of treatment with GA). The 5-year data cohort will be used for inference. […]"}, "patients with RRMS": {"tested_on": "patients with RRMS", "settings": "cited from earlier work"}, "[6]": {"settings": "20 mg once daily s.c. vs placebo"}},
  "note": "Read-outs that look alike come from different tables or passages of the source.",
  "data": [
    {"substance": "L-glutamic acid polymer with L-alanine, L-lysine, L-tyrosine, acetate (salt) [glatiramer acetate]", "values": [
      {"measurement": "Risk Reduction with Copaxone over Placebo", "setting": "[1]; Age <30 years, listed as Copaxone ®", "result": 53, "unit": "%"},
      {"measurement": "Risk Reduction with Copaxone over Placebo", "setting": "[1]; Age <30 years, listed as Copaxone®", "result": 53, "unit": "%"},
      {"measurement": "% CDMS in the placebo-controlled phase", "setting": "[1]; Age >=30 years", "result": 15, "unit": "%"},
      {"measurement": "% CDMS in the placebo-controlled phase", "setting": "[1]; Corticosteroids use for initial attack: No", "result": 9, "unit": "%"},
      {"measurement": "Risk Reduction with Copaxone over Placebo", "setting": "[1]; Corticosteroids use for initial attack: No, listed as Copaxone ®", "result": 54, "unit": "%"},
      {"measurement": "Risk Reduction with Copaxone over Placebo", "setting": "[1]; Corticosteroids use for initial attack: No, listed as Copaxone®", "result": 54, "unit": "%"},
      {"measurement": "% CDMS in the placebo-controlled phase", "setting": "[1]; Corticosteroids use for initial attack: Yes", "result": 16, "unit": "%"},
      {"measurement": "% CDMS in the placebo-controlled phase", "setting": "[1]; Sex: Female", "result": 14, "unit": "%"},
      {"measurement": "Risk Reduction with Copaxone over Placebo", "setting": "[1]; Sex: Female, listed as Copaxone ®", "result": 48, "unit": "%"},
      {"measurement": "Risk Reduction with Copaxone over Placebo", "setting": "[1]; Sex: Female, listed as Copaxone®", "result": 48, "unit": "%"},
      {"measurement": "% CDMS in the placebo-controlled phase", "setting": "[1]; Sex: Male", "result": 11, "unit": "%"},
      {"measurement": "Risk Reduction with Copaxone over Placebo", "setting": "[1]; Sex: Male, listed as Copaxone ®", "result": 43, "unit": "%"},
      {"measurement": "Risk Reduction with Copaxone over Placebo", "setting": "[1]; Sex: Male, listed as Copaxone®", "result": 43, "unit": "%"},
      {"measurement": "% CDMS in the placebo-controlled phase", "setting": "[1]; T1 Gd-enhancing lesions at baseline: T1 = 0 lesions", "result": 14, "unit": "%"},
      {"measurement": "Risk Reduction with Copaxone over Placebo", "setting": "[1]; T1 Gd-enhancing lesions at baseline: T1 = 0 lesions, listed as Copaxone ®", "result": 44, "unit": "%"},
      {"measurement": "Risk Reduction with Copaxone over Placebo", "setting": "[1]; T1 Gd-enhancing lesions at baseline: T1 = 0 lesions, listed as Copaxone®", "result": 44, "unit": "%"},
      {"measurement": "% CDMS in the placebo-controlled phase", "setting": "[1]; T1 Gd-enhancing lesions at baseline: T1 >= 1 lesions", "result": 11, "unit": "%"},
      {"measurement": "Risk Reduction with Copaxone over Placebo", "setting": "[1]; T1 Gd-enhancing lesions at baseline: T1 >= 1 lesions, listed as Copaxone ®", "result": 71, "unit": "%"},
      {"measurement": "Risk Reduction with Copaxone over Placebo", "setting": "[1]; T1 Gd-enhancing lesions at baseline: T1 >= 1 lesions, listed as Copaxone®", "result": 71, "unit": "%"},
      {"measurement": "% CDMS in the placebo-controlled phase", "setting": "[1]; T2 lesions at baseline: 2-8 lesions", "result": 3, "unit": "%"},
      {"measurement": "Risk Reduction with Copaxone over Placebo", "setting": "[1]; T2 lesions at baseline: 2-8 lesions, listed as Copaxone ®", "result": 67, "unit": "%"},
      {"measurement": "Risk Reduction with Copaxone over Placebo", "setting": "[1]; T2 lesions at baseline: 2-8 lesions, listed as Copaxone®", "result": 67, "unit": "%"},
      {"measurement": "% CDMS in the placebo-controlled phase", "setting": "[1]; T2 lesions at baseline: >=9 lesions", "result": 22, "unit": "%"},
      {"measurement": "Risk Reduction with Copaxone over Placebo", "setting": "[1]; T2 lesions at baseline: >=9 lesions, listed as Copaxone ®", "result": 58, "unit": "%"},
      {"measurement": "Risk Reduction with Copaxone over Placebo", "setting": "[1]; T2 lesions at baseline: >=9 lesions, listed as Copaxone®", "result": 58, "unit": "%"},
      {"measurement": "% CDMS in the placebo-controlled phase", "setting": "[1]; Unifocal manifestation: Optic", "result": 6, "unit": "%"},
      {"measurement": "Risk Reduction with Copaxone over Placebo", "setting": "[1]; Unifocal manifestation: Optic, listed as Copaxone ®", "result": 66, "unit": "%"},
      {"measurement": "Risk Reduction with Copaxone over Placebo", "setting": "[1]; Unifocal manifestation: Optic, listed as Copaxone®", "result": 66, "unit": "%"},
      {"measurement": "% CDMS in the placebo-controlled phase", "setting": "[1]; Unifocal manifestation: Spinal", "result": 7, "unit": "%"},
      {"measurement": "Risk Reduction with Copaxone over Placebo", "setting": "[1]; Unifocal manifestation: Spinal", "result": 17, "unit": "%"},
      {"measurement": "prolongation of the quartile time to CDMS", "setting": "[2]; [6]", "result": 115, "unit": "%"},
      {"measurement": "reduction of the risk in developing clinically definite MS (CDMS)", "setting": "[2]; [6]", "result": 44, "unit": "%"},
      {"measurement": "Kaplan-Meier time to conversion to CDMS, 25% percentile", "setting": "[2]; 20 mg once daily s.c., ITT, placebo 336 days", "result": 722, "unit": "days"},
      {"measurement": "patients who developed CDMS at the end of the two-year study", "setting": "[3]; 20 mg once daily s.c., placebo 43 percent", "result": 25, "unit": "%"},
      {"measurement": "probability of development of CDMS over 3 years (Kaplan-Meier estimates)", "setting": "[3]; 20 mg once daily s.c., placebo 65%", "result": 36.4, "unit": "%"},
      {"measurement": "treatment effect in decreasing the rate of new T2 lesions at LOV", "setting": "[3]; 20 mg vs placebo, last observed value", "result": 58, "unit": "%"},
      {"measurement": "reduction of new T1 Gd-enhancing lesions in comparison to placebo, annual comparison", "setting": "[3]; 12 months", "result": "> 4.8", "unit": "fold"},
      {"measurement": "reduction of new T2 lesions in comparison to placebo, annual comparison", "setting": "[3]; 12 months", "result": 6, "unit": "fold"},
      {"measurement": "reduction of new T2 lesions in comparison to placebo, annual comparison", "setting": "[3]; 24 months", "result": 4, "unit": "fold"},
      {"measurement": "reduction of new lesions in comparison to placebo, annual comparison of T1 Gd-enhancing lesions", "setting": "[3]; 24 months", "result": "approximately 3.8 fold"},
      {"measurement": "Number of new T2 lesions at LOV, max", "setting": "[3]; GA 20 mg", "result": 15},
      {"measurement": "Number of new T2 lesions at LOV, median", "setting": "[3]; GA 20 mg", "result": 0},
      {"measurement": "Number of new T2 lesions at LOV, min", "setting": "[3]; GA 20 mg", "result": 0},
      {"measurement": "Number of new T2 lesions at LOV, mean", "setting": "[3]; GA 20 mg, placebo 1.8", "result": 0.7},
      {"measurement": "reduction of new T1 Gd-enhancing lesions in comparison to placebo, annual comparison", "setting": "[3]; ITT cohort, 12 months", "result": "> 4.5", "unit": "fold"},
      {"measurement": "reduction of new T2 lesions in comparison to placebo, annual comparison", "setting": "[3]; ITT cohort, 12 months", "result": "> 3", "unit": "fold"},
      {"measurement": "reduction of new T2 lesions in comparison to placebo, annual comparison", "setting": "[3]; ITT cohort, 24 months", "result": "approximately 4 fold"},
      {"measurement": "reduction of new lesions in comparison to placebo, annual comparison of T1 Gd-enhancing lesions", "setting": "[3]; ITT cohort, 24 months", "result": "approximately 3 fold"},
      {"measurement": "reduction of the cumulative number of new T1 Gd-enhancing lesions at LOV compared to placebo", "setting": "[3]; last observed value", "result": 619},
      {"measurement": "cumulative number of new T1 Gd-enhancing lesions at LOV", "setting": "[3]; placebo 1.19", "result": 0.46},
      {"measurement": "axonal damage", "setting": "[4]", "result": "reduces"},
      {"measurement": "5-year relapse rate", "setting": "[5]", "result": "decreased"},
      {"measurement": "level of disability (EDSS Score)", "setting": "[5]", "result": "reduced"},
      {"measurement": "proportion of patients who convert to CDMS during the 5-year treatment period", "setting": "[5]", "result": "decreased"},
      {"measurement": "time from randomization to conversion to CDMS during the 5-year period", "setting": "[5]", "result": "increased"},
      {"measurement": "total number of enhancing lesions as measured by MRI", "setting": "patients with RRMS; 20 and 40 mg/day subcutaneous, MS patients", "result": "reduce"},
      {"measurement": "efficacy in reducing the frequency of relapses", "setting": "patients with RRMS; patients with RRMS", "result": "well established"}
    ]}
  ]
}
